Molecular target: T1, PIKfyve (Homo sapiens, UniProt Q9Y2I7)
T1 construct: T7 phage fusion (kinase-tagged phage) or DNA tag for qPCR; made in house; host or cells: E. coli BL21-derived host (T7 phage) for most kinases, HEK-293 for the rest
Assay: Kinase binding assay (kinase-tagged T7 phage, affinity beads, qPCR readout), Kd determination
Settings: 11-point 3-fold dilution series
Protocol: Kinase assays. For most assays, kinase-tagged T7 phage strains were prepared in an E. coli host derived from the BL21 strain. E. coli were grown to log-phase and infected with T7 phage and incubated with shaking at 32° C. until lysis. The lysates were centrifuged and filtered to remove cell debris. The remaining kinases were produced in HEK-293 cells and subsequently tagged with DNA for qPCR detection. Streptavidin-coated magnetic beads were treated with biotinylated small molecule ligands for 30 minutes at room temperature to generate affinity resins for kinase assays. The liganded beads were blocked with excess biotin and washed with blocking buffer (SeaBlock (Pierce), 1% BSA, 0.05% Tween 20, 1 mM DTT) to remove unbound ligand and to reduce non-specific binding. Binding reactions were assembled by combining kinases, liganded affinity beads, and test compounds in 1× binding buffer (20% SeaBlock, 0.17×PBS, 0.05% Tween 20, 6 mM DTT). Test compounds were prepared as 111× stocks in 100% DMSO. Kds were determined using an 11-point 3-fold compound dilution series with three DMSO control points. All compounds for Kd measurements are distributed by acoustic transfer (non-contact dispensing) in 100% DMSO. The compounds were then diluted directly into the assays such that the final concentration of DMSO was 0.9%. All reactions performed in polypropylene 384-well plate. Each was a final volume of 0.02 ml. The assay plates were incubated at room temperature with shaking for 1 hour and the affinity beads were washed with wash buffer (1×PBS, 0.05% Tween 20). The beads were then re-suspended in elution buffer (1×PBS, 0.05% Tween 20, 0.5 μM non-biotinylated affinity ligand) and incubated at room temperature with shaking for 30 minutes. The kinase concentration in the eluates was measured by qPCR.
An 11-point 3-fold serial dilution of each test compound was prepared in 100% DMSO at 100× final test concentration and subsequently diluted to 1× in the assay (final DMSO concentration=1%). Most Kds were determined using a compound top concentration=30,000 nM. If the initial Kd determined was <0.5 nM (the lowest concentration tested), the measurement was repeated with a serial dilution starting at a lower top concentration.

T1 sequence (Q9Y2I7 whole entry, the tested form may be a part): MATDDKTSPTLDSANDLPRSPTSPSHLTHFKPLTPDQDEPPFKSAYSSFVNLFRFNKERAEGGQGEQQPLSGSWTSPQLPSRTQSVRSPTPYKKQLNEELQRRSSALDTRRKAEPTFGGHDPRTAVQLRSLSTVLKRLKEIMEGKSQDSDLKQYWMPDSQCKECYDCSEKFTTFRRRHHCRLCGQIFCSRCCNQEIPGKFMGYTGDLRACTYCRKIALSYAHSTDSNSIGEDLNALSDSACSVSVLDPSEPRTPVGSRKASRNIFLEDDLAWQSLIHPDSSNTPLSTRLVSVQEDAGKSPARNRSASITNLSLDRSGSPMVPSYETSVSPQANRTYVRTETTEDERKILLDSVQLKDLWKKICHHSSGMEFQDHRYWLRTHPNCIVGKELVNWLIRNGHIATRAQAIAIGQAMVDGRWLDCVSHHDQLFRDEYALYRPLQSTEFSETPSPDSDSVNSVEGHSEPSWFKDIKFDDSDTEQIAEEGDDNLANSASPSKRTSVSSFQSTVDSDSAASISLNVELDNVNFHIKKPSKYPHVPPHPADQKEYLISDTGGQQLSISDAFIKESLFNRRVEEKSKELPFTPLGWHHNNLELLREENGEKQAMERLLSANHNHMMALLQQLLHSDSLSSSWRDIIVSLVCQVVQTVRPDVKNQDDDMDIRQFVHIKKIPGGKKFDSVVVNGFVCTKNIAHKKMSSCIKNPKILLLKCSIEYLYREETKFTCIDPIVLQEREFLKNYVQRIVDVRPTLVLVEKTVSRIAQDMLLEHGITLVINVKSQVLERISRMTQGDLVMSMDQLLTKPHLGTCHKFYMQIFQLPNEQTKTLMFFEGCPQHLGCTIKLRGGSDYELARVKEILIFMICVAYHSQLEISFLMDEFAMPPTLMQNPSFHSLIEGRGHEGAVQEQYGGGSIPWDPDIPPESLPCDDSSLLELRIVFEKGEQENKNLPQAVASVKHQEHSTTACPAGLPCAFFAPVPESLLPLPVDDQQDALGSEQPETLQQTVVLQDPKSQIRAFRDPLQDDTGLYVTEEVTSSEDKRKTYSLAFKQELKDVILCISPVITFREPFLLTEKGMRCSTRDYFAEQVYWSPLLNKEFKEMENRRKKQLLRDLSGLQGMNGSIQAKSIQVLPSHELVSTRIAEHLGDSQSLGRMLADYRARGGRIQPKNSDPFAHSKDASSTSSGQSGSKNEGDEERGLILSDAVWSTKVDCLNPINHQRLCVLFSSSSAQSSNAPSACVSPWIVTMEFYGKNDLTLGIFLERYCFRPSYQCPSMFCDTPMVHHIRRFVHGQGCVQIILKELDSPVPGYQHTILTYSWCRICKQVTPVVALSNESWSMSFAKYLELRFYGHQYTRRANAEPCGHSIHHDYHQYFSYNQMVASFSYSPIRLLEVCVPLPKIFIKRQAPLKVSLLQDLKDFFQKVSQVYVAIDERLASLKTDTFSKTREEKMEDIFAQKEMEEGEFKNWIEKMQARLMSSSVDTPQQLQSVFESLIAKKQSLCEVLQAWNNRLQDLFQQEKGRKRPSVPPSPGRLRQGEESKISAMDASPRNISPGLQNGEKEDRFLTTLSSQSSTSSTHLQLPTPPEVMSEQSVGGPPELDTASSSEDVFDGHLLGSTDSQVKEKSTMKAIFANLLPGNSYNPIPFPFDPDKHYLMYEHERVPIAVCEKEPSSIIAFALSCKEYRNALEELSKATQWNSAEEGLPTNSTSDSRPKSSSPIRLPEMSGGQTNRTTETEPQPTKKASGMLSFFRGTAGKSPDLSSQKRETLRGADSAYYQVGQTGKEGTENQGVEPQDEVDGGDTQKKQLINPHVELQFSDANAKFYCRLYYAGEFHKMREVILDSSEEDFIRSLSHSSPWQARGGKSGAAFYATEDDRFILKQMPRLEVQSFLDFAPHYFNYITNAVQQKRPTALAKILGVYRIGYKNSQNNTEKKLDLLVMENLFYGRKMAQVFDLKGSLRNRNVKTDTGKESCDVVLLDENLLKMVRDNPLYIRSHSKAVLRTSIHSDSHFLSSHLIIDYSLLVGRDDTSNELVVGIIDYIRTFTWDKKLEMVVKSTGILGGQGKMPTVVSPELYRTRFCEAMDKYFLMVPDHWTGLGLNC

Cc1cccc(/C=N/Nc2nc3c(c(N4CCOCC4)n2)CN(C(=O)NC2COC2)C3)c1 [Example 27, 4-morpholino-2-[(2E)-2-(m-tolylmethylene)hydrazino]-N-(oxetan-3-yl)-5,7-dihydropyrrolo[3,4-d]pyrimidine-6-carboxamide] gave a Kd of 1 to 5 nM.

For Cc1cccc(/C=N/Nc2nc3c(c(N4CCOCC4)n2)CN(S(=O)(=O)c2cccnc2)C3)c1 [Example 19, 4-morpholino-N-[(E)-m-tolylmethyleneamino]-6-(3-pyridylsulfonyl)-5,7-dihydropyrrolo[3,4-d]pyrimidin-2-amine], the Kd was 1 to 5 nM.
